# Tests used:
# Set-up in all cases: species or system chicken
# c-Src wt (SH3 domain) = biological target: T1, c-Src wt (SH3 domain) (Gallus gallus, UniProt P00523, Q128R); test: ITC binding of peptide RLP2 to c-Src SH3 wt; conditions: 25 °C
# T1 construct: The plasmid pET15b containing the chicken c-Src-SH3 domain gene; made in house
# Description: (§1) Differential Scanning Calorimetry (DSC) was used to evaluate the effect of the mutation on the conformational equilibrium and stability of the protein. Isothermal Titration Calorimetry (ITC) measured the binding energetics of all mutants to the RLP2 ligand at 25°C. The results for the 15 mutants studied are summarized in Figs 1D, S1 and S2, as well as S3 and S4 Tables.
# (§2) The plasmid pET15b containing the chicken c-Src-SH3 domain gene was a generous gift from Dr. E. Freire (Johns Hopkins University). The genes encoding for the c-Src-SH3 mutants were obtained by site directed mutagenesis using the QuickChange Site-Directed-Mutagenesis Kit (Stratagene) taking the WT c-Src-SH3 plasmid as template or purchased from Top Gene Technologies, Canada. WT and mutants of c-Src-SH3 domain were expressed and purified as previously described for the wild type protein [68]. The peptide RLP2 (Ac-RALPPLPRY-NH2) was bought from Peptide 2.0 (Piscataway, USA) and JPT (Berlin, Germany) with a purity > 95%. Protein concentration was determined by absorbance at 280 nm using an extinction coefficient of 16500 M^-1·cm^-1. Peptide concentration was determined by absorbance at 274 nm using an extinction coefficient of 1400 M^-1·cm^-1.
# (§3) Isothermal titration calorimetry was performed using a high-precision VP titration calorimetric system (Microcal Inc., Northampton, MA) as previously described. […] Titrations were made using a profile of injection volumes from 3 μL to 20 μL to define the titration curve more clearly. The heat produced by the binding reaction between the Src-SH3 domain and the peptide ligand was calculated as the difference between the heat of reaction and the corresponding heat of dilution, as obtained from independent titrations of the peptide ligand into the buffer. The resulting binding isotherms were analyzed by non-linear least-square fittings of the experimental data to a model corresponding to a single set of identical sites, as described before.
# (§4) Supplementary file pcbi.1004938.s008.doc: S3 Table Analysis of Src SH3 binding affinities through ITC. Thermodynamic binding affinity to peptide RLP2. A * indicates experiment made by fluorescence titration only. (DOC) Click here for additional data file.
# c-Src H59R (SH3 domain) = biological target: T2, c-Src H59R (SH3 domain) (Gallus gallus, UniProt P00523, H122R/Q128R); test: ITC binding of peptide RLP2 to c-Src SH3 H59R; conditions: 25 °C
# T2 construct: The plasmid pET15b containing the chicken c-Src-SH3 domain gene; made in house
# Description: as §1, §2, §3, §4
# c-Src R73E (SH3 domain) = biological target: T3, c-Src R73E (SH3 domain) (Gallus gallus, UniProt P00523, Q128E); test: ITC binding of peptide RLP2 to c-Src SH3 R73E; conditions: 25 °C
# T3 construct: The plasmid pET15b containing the chicken c-Src-SH3 domain gene; made in house
# Description: as §1, §2, §3, §4
# c-Src F18L (SH3 domain) [1] = biological target: T4, c-Src F18L (SH3 domain) (Gallus gallus, UniProt P00523, F86L/Q128R); test: ITC binding of peptide RLP2 to c-Src SH3 F18L; conditions: ITC, 25 °C
# T4 construct: The plasmid pET15b containing the chicken c-Src-SH3 domain gene; made in house
# Description: as §1, §2, §3, §4
# c-Src F18L (SH3 domain) [2] = test: ITC binding of peptide RLP2 to c-Src SH3 F18L; conditions: 25 °C, binding of RLP2, F18L relative to wt
# Description: as §1, §2, §3, §4
# c- Src I77V (SH3 domain) = biological target: T5, c- Src I77V (SH3 domain) (Gallus gallus, UniProt P00523, I132V); test: ITC binding of peptide RLP2 to c-Src SH3 I77V; conditions: 25 °C
# T5 construct: The plasmid pET15b containing the chicken c-Src-SH3 domain gene; made in house
# Description: as §1, §2, §3, §4
# c-Src S26A (SH3 domain) = test: ITC binding of peptide RLP2 to c-Src SH3 S26A; conditions: 25 °C
# Description: as §1, §2, §3, §4
# c-Src F18W (SH3 domain) = biological target: T6, c-Src F18W (SH3 domain) (Gallus gallus, UniProt P00523, F86W); test: ITC binding of peptide RLP2 to c-Src SH3 F18W; conditions: 25 °C
# T6 construct: The plasmid pET15b containing the chicken c-Src-SH3 domain gene; made in house
# Description: as §1, §2, §3, §4
# c-Src L32V (SH3 domain) = biological target: T7, c-Src L32V (SH3 domain) (Gallus gallus, UniProt P00523, L100V/Q128R); test: Fluorescence titration binding of peptide RLP2 to c-Src SH3 L32V; conditions: fluorescence titration only, 25 °C
# T7 construct: The plasmid pET15b containing the chicken c-Src-SH3 domain gene; made in house
# Text: as §2, §4
# [3] = binding of RLP2, wt = reference
# [4] = binding of RLP2, H59R relative to wt
# [5] = binding of RLP2, R73E relative to wt
# [6] = binding of RLP2, I77V relative to wt
# [7] = binding of RLP2, S26A relative to wt
# [8] = binding of RLP2, F18W relative to wt
substance,measurement,setting,value
"Ac-RALPPLPRY-NH2 [RLP2, Ac-RALPPLPRY-NH2]",∆∆Gb (25 ºC),c-Src wt (SH3 domain); [3],0 kcal/mol
same,∆∆Hb (25 ºC),c-Src wt (SH3 domain); [3],0 kcal/mol
same,∆Gb (25 ºC),"c-Src wt (SH3 domain); ITC, binding of RLP2, wt",-6.63 ± 0.03 kcal/mol
same,∆Hb (25 ºC),"c-Src wt (SH3 domain); ITC, binding of RLP2, wt",-14.2 ± 0.2 kcal/mol
same,Kd,"c-Src wt (SH3 domain); ITC, RLP2 about 2 mM titrated into SH3 (50-122 μM), single set of identical sites, wt, read-out: Kd (25 ºC)",13.8 ± 0.6 µM
same,∆∆Gb (25 ºC),c-Src H59R (SH3 domain); [4],-0.13 ± 0.03 kcal/mol
same,∆∆Hb (25 ºC),c-Src H59R (SH3 domain); [4],-0.1 ± 0.3 kcal/mol
same,∆Gb (25 ºC),"c-Src H59R (SH3 domain); ITC, binding of RLP2, H59R",-6.76 ± 0.01 kcal/mol
same,∆Hb (25 ºC),"c-Src H59R (SH3 domain); ITC, binding of RLP2, H59R",-14.3 ± 0.2 kcal/mol
same,Kd,"c-Src H59R (SH3 domain); ITC, RLP2 about 2 mM titrated into SH3 (50-122 μM), H59R, read-out: Kd (25 ºC)",11 ± 0.2 µM
same,∆∆Gb (25 ºC),c-Src R73E (SH3 domain); [5],-0.24 ± 0.04 kcal/mol
same,∆∆Hb (25 ºC),c-Src R73E (SH3 domain); [5],-0.1 ± 0.3 kcal/mol
same,∆Gb (25 ºC),"c-Src R73E (SH3 domain); ITC, binding of RLP2, R73E",-6.87 ± 0.03 kcal/mol
same,∆Hb (25 ºC),"c-Src R73E (SH3 domain); ITC, binding of RLP2, R73E",-14.3 ± 0.2 kcal/mol
same,Kd,"c-Src R73E (SH3 domain); ITC, RLP2 about 2 mM titrated into SH3 (50-122 μM), R73E (control), read-out: Kd (25 ºC)",9.3 ± 0.5 µM
same,∆Gb (25 ºC),"c-Src F18L (SH3 domain) [1]; binding of RLP2, F18L",-6.64 ± 0.01 kcal/mol
same,∆Hb (25 ºC),"c-Src F18L (SH3 domain) [1]; binding of RLP2, F18L",-14.5 ± 0.1 kcal/mol
same,Kd,"c-Src F18L (SH3 domain) [1]; RLP2 about 2 mM titrated into SH3 (50-122 μM), F18L, read-out: Kd (25 ºC)",13.5 ± 0.3 µM
same,∆∆Gb (25 ºC),c-Src F18L (SH3 domain) [2],-0.01 ± 0.03 kcal/mol
same,∆∆Hb (25 ºC),c-Src F18L (SH3 domain) [2],-0.3 ± 0.2 kcal/mol
same,∆∆Gb (25 ºC),c- Src I77V (SH3 domain); [6],0.31 ± 0.03 kcal/mol
same,∆∆Hb (25 ºC),c- Src I77V (SH3 domain); [6],0.5 ± 0.2 kcal/mol
same,∆Hb (25 ºC),"c- Src I77V (SH3 domain); ITC, binding of RLP2, I77V",-13.7 ± 0.1 kcal/mol
same,Kd,"c- Src I77V (SH3 domain); ITC, RLP2 about 2 mM titrated into SH3 (50-122 μM), I77V, read-out: Kd (25 ºC)",15.5 ± 0.3 µM
same,∆∆Gb (25 ºC),c-Src S26A (SH3 domain); [7],0.18 ± 0.06 kcal/mol
same,∆∆Hb (25 ºC),c-Src S26A (SH3 domain); [7],0.4 ± 0.5 kcal/mol
same,∆Gb (25 ºC),"c-Src S26A (SH3 domain); ITC, binding of RLP2, S26A",-6.45 ± 0.05 kcal/mol
same,∆Hb (25 ºC),"c-Src S26A (SH3 domain); ITC, binding of RLP2, S26A",-13.8 ± 0.5 kcal/mol
same,Kd,"c-Src S26A (SH3 domain); ITC, RLP2 about 2 mM titrated into SH3 (50-122 μM), S26A (control), read-out: Kd (25 ºC)",18.8 ± 1.4 µM
same,∆∆Gb (25 ºC),c-Src F18W (SH3 domain); [8],0.23 ± 0.03 kcal/mol
same,∆∆Hb (25 ºC),c-Src F18W (SH3 domain); [8],1.2 ± 0.2 kcal/mol
same,∆Gb (25 ºC),"c-Src F18W (SH3 domain); ITC, binding of RLP2, F18W",-6.40 ± 0.01 kcal/mol
same,∆Hb (25 ºC),"c-Src F18W (SH3 domain); ITC, binding of RLP2, F18W",-13.0 ± 0.1 kcal/mol
same,Kd,"c-Src F18W (SH3 domain); ITC, RLP2 about 2 mM titrated into SH3 (50-122 μM), F18W, read-out: Kd (25 ºC)",20.2 ± 0.3 µM
same,∆∆Gb (25 ºC),c-Src L32V (SH3 domain); L32V relative to wt,1.76 ± 0.07 kcal/mol
same,∆Gb (25 ºC),"c-Src L32V (SH3 domain); binding of RLP2, L32V",-4.87 ± 0.06 kcal/mol
